Test results reported in ChEMBL document CHEMBL1127385, “Synthesis and diuretic activity of alkyl- and arylguanidine analogs of N,N'-dicyclohexyl-4-morpholinecarboxamidine in rats and dogs” (J Med Chem, 1994).
Values belong to the compound of their own block, whether it stands above or below them.

Assays:
Rattus norvegicus [1] = test: Total electrolytic excretion of sodium in urine of rats after peroral administration of 282 uM/Kg of drug; type: ADME, organism-based; settings: in vivo, po
Rattus norvegicus [2] = test: Tested for the diuretic activity by measuring the urinary volume after peroral administering 28.2 uM/Kg of drug in rats; type: ADME, organism-based, Urine; settings: in vivo, po
Rattus norvegicus [3] = test: Total electrolytic excretion of chlorine in urine of rats after peroral administration of 28.2 uM/Kg of drug; type: ADME, organism-based; settings: in vivo, po
Rattus norvegicus [4] = test: Total electrolytic excretion of potassium in urine of rats after peroral administration of 282 uM/Kg of drug; type: ADME, organism-based; settings: in vivo, po
Rattus norvegicus [5] = test: Tested for the diuretic activity by measuring the urinary volume after peroral administering 282 uM/Kg of drug in rats; type: ADME, organism-based, Urine; settings: in vivo, po
Rattus norvegicus [6] = test: Ratio of Total electrolytic excretion of sodium and potassium in urine of rats after peroral administration of 28.2 uM/Kg of drug; type: ADME, organism-based; settings: in vivo, po
Rattus norvegicus [7] = test: Tested for the diuretic activity by measuring the urinary volume after peroral administering 84.5 uM/Kg of drug in rats; type: ADME, organism-based, Urine; settings: in vivo, po
Rattus norvegicus [8] = test: Total electrolytic excretion of chlorine in urine of rats after peroral administration of 84.5 uM/Kg of drug; type: ADME, organism-based; settings: in vivo, po
Rattus norvegicus [9] = test: Total electrolytic excretion of potassium in urine of rats after peroral administration of 84.5 uM/Kg of drug; type: ADME, organism-based; settings: in vivo, po
Rattus norvegicus [10] = test: Total electrolytic excretion of chlorine in urine of rats after peroral administration of 282 uM/Kg of drug; type: ADME, organism-based; settings: in vivo, po
Rattus norvegicus [11] = test: Total electrolytic excretion of potassium in urine of rats after peroral administration of 28.2 uM/Kg of drug; type: ADME, organism-based; settings: in vivo, po
Rattus norvegicus [12] = test: Total electrolytic excretion of sodium in urine of rats after peroral administration of 28.2 uM/Kg of drug; type: ADME, organism-based; settings: in vivo, po
Rattus norvegicus [13] = test: Ratio of Total electrolytic excretion of sodium and potassium in urine of rats after peroral administration of 282 uM/Kg of drug; type: ADME, organism-based; settings: in vivo, po
Rattus norvegicus [14] = test: Total electrolytic excretion of sodium in urine of rats after peroral administration of 84.5 uM/Kg of drug; type: ADME, organism-based; settings: in vivo, po
Rattus norvegicus [15] = test: Ratio of Total electrolytic excretion of sodium and potassium in urine of rats after peroral administration of 84.5 uM/Kg of drug; type: ADME, organism-based; settings: in vivo, po
Rattus norvegicus [16] = test: Ratio of Total electrolytic excretion of sodium and potassium in urine of rats after peroral administration of 84.7 uM/Kg of drug; type: ADME, organism-based; settings: in vivo, po
Rattus norvegicus [17] = test: Total electrolytic excretion of potassium in urine of rats after peroral administration of 28.22 uM/Kg of drug; type: ADME, organism-based; settings: in vivo, po
Rattus norvegicus [18] = test: Ratio of Total electrolytic excretion of sodium and potassium in urine of rats after intravenous administration of 8.47 uM/Kg of drug; type: ADME, organism-based; settings: in vivo
Canis familiaris [19] = test: Total electrolytic excretion of sodium in urine of dogs after intravenous administration of 8.47 uM/Kg of drug; type: ADME, organism-based, Canis lupus familiaris; settings: dog, in vivo
Rattus norvegicus [20] = test: Total electrolytic excretion of potassium in urine of rats after peroral administration of 84.7 uM/Kg of drug; type: ADME, organism-based; settings: in vivo, po
Rattus norvegicus [21] = test: Total electrolytic excretion of chlorine in urine of rats after peroral administration of 28.22 uM/Kg of drug; type: ADME, organism-based; settings: in vivo, po
Canis familiaris [22] = test: Tested for the diuretic activity by measuring the urinary volume after intravenous administering 8.47 uM/Kg of drug in dogs; type: ADME, organism-based, Canis lupus familiaris, Urine; settings: dog, in vivo
Canis familiaris [23] = test: Total electrolytic excretion of potassium in urine of dogs after intravenous administration of 8.47 uM/Kg of drug; type: ADME, organism-based, Canis lupus familiaris; settings: dog, in vivo
Rattus norvegicus [24] = test: Total electrolytic excretion of sodium in urine of rats after peroral administration of 84.7 uM/Kg of drug; type: ADME, organism-based; settings: in vivo, po
Rattus norvegicus [25] = test: Total electrolytic excretion of chlorine in urine of rats after peroral administration of 84.7 uM/Kg of drug; type: ADME, organism-based; settings: in vivo, po
Canis familiaris [26] = test: Total electrolytic excretion of chlorine in urine of dogs after intravenous administration of 8.47 uM/Kg of drug; type: ADME, organism-based, Canis lupus familiaris; settings: dog, in vivo
Rattus norvegicus [27] = test: Tested for the diuretic activity by measuring the urinary volume after peroral administering 84.7 uM/Kg of drug in rats; type: ADME, organism-based, Urine; settings: in vivo, po

Excretion Na+ (Rattus norvegicus [1]): 0.76 m equiv | V (Rattus norvegicus [2]): 6.5 mL | Excretion Cl- (Rattus norvegicus [3]): 1.18 m equiv | Excretion K+ (Rattus norvegicus [4]): 0.21 m equiv | V (Rattus norvegicus [5]): 3.7 mL | Ratio (Rattus norvegicus [6]): 4 | V (Rattus norvegicus [7]): 7.4 mL | Excretion Cl- (Rattus norvegicus [8]): 1.46 m equiv | Excretion K+ (Rattus norvegicus [9]): 0.35 m equiv | Excretion Cl- (Rattus norvegicus [10]): 0.77 m equiv | Excretion K+ (Rattus norvegicus [11]): 0.29 m equiv | Excretion Na+ (Rattus norvegicus [12]): 1.13 m equiv | Ratio (Rattus norvegicus [13]): 3.7 | Excretion Na+ (Rattus norvegicus [14]): 1.33 m equiv | Ratio (Rattus norvegicus [15]): 3.8
Structure (SMILES): C1CCC(/N=C(/NC2CCCCC2)N2CCCCC2)CC1

Ratio (Rattus norvegicus [16]): 4 | Excretion Na+ (Rattus norvegicus [1]): 2.05 m equiv | Excretion K+ (Rattus norvegicus [17]): 0.39 m equiv | V (Rattus norvegicus [2]): 9.2 mL | Ratio (Rattus norvegicus [18]): 5.7 | Excretion K+ (Rattus norvegicus [4]): 0.24 m equiv | Excretion Na+ (Canis familiaris [19]): 6 m equiv | Excretion K+ (Rattus norvegicus [20]): 0.48 m equiv | V (Rattus norvegicus [5]): 16.2 mL | Excretion Cl- (Rattus norvegicus [21]): 1.32 m equiv | Ratio (Rattus norvegicus [6]): 3.3 | V (Canis familiaris [22]): 58 mL | Excretion K+ (Canis familiaris [23]): 1.1 m equiv | Excretion Na+ (Rattus norvegicus [24]): 1.9 m equiv | Excretion Cl- (Rattus norvegicus [25]): 1.82 m equiv | Excretion Cl- (Canis familiaris [26]): 5.7 m equiv | Excretion Cl- (Rattus norvegicus [10]): 1.7 m equiv | Excretion Na+ (Rattus norvegicus [12]): 1.29 m equiv | V (Rattus norvegicus [27]): 13.6 mL | Ratio (Rattus norvegicus [13]): 8.5
Structure (SMILES): Fc1ccc(/N=C(/Nc2ccc(F)cc2)N2CCOCC2)cc1
